Test results published in ChEMBL document CHEMBL3399966, “Isosteric replacements of the carboxylic acid of drug candidate VX-787: Effect of charge on antiviral potency and kinase activity of azaindole-based influenza PB2 inhibitors” (Bioorg Med Chem Lett, 2015).

Assays:
[1] = molecular target: Rho-associated protein kinase (Homo sapiens, UniProt O75116+Q13464); assay: Inhibition of ROCK (unknown origin); assay type: protein-complex assay
[2] = molecular target: Glycogen synthase kinase-3 (Homo sapiens, UniProt P49840+P49841); assay: Inhibition of GSK3 (unknown origin); assay type: protein assay
[3] = molecular target: T1, Interleukin-1 receptor-associated kinase 4 (Homo sapiens, UniProt Q9NWZ3); assay: Inhibition of IRAK4 (unknown origin)
T1 sequence (Q9NWZ3 whole entry): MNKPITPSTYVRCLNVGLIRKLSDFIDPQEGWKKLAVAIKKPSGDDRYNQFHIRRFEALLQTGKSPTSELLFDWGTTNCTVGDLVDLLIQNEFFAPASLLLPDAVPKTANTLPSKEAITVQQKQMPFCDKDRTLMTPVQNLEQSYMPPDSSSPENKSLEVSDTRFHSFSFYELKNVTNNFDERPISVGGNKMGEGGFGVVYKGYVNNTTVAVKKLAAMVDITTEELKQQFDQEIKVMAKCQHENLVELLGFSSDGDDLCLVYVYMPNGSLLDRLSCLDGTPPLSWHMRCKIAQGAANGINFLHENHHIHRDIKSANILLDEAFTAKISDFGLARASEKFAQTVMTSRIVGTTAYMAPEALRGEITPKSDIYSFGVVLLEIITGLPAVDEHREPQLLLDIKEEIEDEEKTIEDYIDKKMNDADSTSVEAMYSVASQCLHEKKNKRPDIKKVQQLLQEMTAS

[4] = molecular target: Serine/threonine-protein kinase PLK1 (Homo sapiens, UniProt P53350); assay: Inhibition of PLK (unknown origin)
Sequence of Serine/threonine-protein kinase PLK1 (P53350 whole entry): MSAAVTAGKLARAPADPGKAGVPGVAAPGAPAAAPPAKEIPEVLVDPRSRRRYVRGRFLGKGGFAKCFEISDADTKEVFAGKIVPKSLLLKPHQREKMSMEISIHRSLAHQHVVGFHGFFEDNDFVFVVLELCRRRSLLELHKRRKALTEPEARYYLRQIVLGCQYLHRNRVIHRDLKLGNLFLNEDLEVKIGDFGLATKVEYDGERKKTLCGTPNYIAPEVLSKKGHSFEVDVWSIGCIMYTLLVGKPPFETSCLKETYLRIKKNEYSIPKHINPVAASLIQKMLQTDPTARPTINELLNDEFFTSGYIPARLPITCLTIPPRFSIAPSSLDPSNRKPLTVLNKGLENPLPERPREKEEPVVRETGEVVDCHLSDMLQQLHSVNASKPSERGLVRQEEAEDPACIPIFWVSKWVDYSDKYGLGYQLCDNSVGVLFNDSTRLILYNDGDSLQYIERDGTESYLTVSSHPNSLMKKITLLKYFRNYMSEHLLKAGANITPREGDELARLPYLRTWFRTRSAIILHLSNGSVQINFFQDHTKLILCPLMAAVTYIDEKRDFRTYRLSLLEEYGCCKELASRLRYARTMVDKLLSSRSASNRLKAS

Influenza A virus [5] = assay: Antiviral activity against influenza A virus A/PR/8/34 strain incubated with MDCK cells assessed as reduction of viral RNA level equal to 1% of control level after 72 hrs by branched DNA assay; assay type: functional, organism-based; conditions: A/Puerto Rico/8/1934(H1N1)
[6] = molecular target: T2, Phosphatidylinositol 4,5-bisphosphate 3-kinase catalytic subunit delta isoform (Homo sapiens, UniProt O00329); assay: Inhibition of PI3Kdelta (unknown origin)
T2 sequence (O00329 whole entry): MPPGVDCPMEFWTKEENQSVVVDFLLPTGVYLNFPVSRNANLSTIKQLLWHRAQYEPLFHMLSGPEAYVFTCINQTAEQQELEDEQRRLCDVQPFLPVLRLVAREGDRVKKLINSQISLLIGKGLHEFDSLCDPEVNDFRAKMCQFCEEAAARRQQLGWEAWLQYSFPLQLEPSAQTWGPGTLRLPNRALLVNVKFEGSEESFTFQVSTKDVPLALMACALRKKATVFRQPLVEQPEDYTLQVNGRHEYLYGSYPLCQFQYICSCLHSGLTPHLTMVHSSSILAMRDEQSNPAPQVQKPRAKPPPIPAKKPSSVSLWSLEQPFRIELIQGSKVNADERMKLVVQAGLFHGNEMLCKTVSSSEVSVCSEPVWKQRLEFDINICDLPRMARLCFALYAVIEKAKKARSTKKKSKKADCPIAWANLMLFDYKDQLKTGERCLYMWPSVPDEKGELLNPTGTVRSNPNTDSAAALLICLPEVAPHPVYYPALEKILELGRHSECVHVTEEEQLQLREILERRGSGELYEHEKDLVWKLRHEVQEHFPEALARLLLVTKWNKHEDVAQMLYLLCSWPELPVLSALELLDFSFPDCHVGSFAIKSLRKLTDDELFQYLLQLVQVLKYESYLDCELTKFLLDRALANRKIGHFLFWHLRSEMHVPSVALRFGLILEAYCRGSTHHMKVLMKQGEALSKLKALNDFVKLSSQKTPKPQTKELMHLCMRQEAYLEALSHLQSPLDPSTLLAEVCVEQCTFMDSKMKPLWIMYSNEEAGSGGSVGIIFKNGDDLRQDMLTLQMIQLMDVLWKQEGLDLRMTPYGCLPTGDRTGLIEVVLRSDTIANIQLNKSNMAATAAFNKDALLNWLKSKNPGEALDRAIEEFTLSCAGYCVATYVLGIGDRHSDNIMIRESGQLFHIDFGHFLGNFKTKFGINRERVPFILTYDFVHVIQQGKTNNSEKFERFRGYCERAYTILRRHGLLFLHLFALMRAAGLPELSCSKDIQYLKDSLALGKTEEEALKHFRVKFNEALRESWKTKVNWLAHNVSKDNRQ

[7] = molecular target: Tyrosine-protein kinase JAK2 (Homo sapiens, UniProt O60674); assay: Inhibition of JAK2 (unknown origin)
Sequence of Tyrosine-protein kinase JAK2 (O60674 whole entry, canonical isoform): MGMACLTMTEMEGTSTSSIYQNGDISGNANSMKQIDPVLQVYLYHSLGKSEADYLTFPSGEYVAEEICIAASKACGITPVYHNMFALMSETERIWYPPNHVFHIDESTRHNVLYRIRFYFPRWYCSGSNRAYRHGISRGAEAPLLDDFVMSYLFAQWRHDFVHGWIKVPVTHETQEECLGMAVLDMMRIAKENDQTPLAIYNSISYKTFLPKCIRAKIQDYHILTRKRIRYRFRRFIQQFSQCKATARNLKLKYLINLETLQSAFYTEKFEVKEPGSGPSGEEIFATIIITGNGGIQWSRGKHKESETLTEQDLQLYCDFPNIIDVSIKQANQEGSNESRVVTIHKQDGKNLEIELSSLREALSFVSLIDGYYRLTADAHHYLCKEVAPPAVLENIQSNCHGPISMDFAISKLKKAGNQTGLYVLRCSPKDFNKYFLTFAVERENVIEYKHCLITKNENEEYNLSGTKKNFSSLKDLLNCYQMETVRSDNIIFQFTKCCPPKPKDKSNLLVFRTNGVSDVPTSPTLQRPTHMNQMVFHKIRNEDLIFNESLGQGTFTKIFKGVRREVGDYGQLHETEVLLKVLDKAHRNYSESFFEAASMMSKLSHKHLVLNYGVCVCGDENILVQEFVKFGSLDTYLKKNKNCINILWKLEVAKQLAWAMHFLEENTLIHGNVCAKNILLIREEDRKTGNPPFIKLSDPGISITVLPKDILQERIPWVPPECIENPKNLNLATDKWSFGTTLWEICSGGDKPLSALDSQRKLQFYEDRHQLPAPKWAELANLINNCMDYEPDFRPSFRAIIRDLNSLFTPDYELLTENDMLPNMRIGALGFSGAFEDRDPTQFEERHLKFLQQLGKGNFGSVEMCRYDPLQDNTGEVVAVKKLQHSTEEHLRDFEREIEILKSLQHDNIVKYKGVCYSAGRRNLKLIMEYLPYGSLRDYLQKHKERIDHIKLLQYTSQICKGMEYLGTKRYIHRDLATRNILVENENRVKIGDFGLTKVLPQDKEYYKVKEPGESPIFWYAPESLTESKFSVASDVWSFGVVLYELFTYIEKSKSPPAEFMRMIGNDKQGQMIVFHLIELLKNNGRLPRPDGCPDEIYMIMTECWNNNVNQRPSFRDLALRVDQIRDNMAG

[8] = molecular target: Phosphatidylinositol 4,5-bisphosphate 3-kinase catalytic subunit alpha isoform (Homo sapiens, UniProt P42336); assay: Inhibition of PI3Kalpha (unknown origin)
[9] = molecular target: T3, Receptor-type tyrosine-protein kinase FLT3 (Homo sapiens, UniProt P36888); assay: Inhibition of FLT3 (unknown origin)
T3 sequence (P36888 whole entry): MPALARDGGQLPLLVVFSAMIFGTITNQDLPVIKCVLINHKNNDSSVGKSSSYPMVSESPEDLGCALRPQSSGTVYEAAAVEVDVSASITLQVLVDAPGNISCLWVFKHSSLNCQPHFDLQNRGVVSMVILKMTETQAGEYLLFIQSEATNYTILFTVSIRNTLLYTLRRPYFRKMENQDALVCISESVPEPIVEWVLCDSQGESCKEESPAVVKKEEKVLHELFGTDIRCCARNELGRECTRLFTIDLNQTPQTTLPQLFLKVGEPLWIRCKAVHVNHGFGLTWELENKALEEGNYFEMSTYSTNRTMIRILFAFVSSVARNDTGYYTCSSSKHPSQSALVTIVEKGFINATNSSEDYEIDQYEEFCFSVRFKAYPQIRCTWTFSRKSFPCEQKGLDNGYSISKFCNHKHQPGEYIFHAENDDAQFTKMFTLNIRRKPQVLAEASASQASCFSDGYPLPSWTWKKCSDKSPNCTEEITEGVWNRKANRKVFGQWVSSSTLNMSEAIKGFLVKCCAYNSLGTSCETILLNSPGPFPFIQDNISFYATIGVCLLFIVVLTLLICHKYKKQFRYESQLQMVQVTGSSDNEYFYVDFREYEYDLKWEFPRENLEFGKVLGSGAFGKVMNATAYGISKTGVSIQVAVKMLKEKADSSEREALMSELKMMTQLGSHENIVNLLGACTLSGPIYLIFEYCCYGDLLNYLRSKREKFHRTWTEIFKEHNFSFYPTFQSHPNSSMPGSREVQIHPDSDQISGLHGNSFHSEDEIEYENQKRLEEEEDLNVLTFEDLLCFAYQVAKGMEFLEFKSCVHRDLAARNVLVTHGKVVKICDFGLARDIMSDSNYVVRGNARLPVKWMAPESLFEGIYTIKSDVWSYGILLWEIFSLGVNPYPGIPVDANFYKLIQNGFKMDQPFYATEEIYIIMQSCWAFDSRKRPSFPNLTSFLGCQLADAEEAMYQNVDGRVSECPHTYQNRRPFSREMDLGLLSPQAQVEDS

[10] = molecular target: Mitogen-activated protein kinase 10 (Homo sapiens, UniProt P53779); assay: Inhibition of JNK3 (unknown origin)
Sequence of Mitogen-activated protein kinase 10 (P53779 whole entry): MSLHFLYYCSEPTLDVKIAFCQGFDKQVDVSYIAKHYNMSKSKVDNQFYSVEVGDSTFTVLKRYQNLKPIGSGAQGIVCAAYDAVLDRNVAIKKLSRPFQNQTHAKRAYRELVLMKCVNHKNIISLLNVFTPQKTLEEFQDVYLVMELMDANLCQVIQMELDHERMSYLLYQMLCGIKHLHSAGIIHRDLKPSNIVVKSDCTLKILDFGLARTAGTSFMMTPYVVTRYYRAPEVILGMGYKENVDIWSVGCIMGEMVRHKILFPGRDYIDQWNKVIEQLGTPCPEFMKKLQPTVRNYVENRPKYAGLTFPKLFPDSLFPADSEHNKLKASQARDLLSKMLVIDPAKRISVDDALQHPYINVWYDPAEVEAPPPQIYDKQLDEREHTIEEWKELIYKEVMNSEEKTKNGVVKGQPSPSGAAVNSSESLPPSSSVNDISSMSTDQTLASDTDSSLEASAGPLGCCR

[11] = molecular target: Cyclin-dependent kinase 2 (Homo sapiens, UniProt P24941); assay: Inhibition of CDK2 (unknown origin)
[12] = molecular target: cAMP-dependent protein kinase catalytic subunit alpha (Homo sapiens, UniProt P17612); assay: Inhibition of PKAa (unknown origin)
Influenza A virus [13] = assay: Antiviral activity against Influenza A virus A/PR/8/34 strain incubated with MDCK cells assessed as cell protection after 72 hrs by phenotypic cell protection assay; assay type: functional, organism-based; conditions: A/Puerto Rico/8/1934(H1N1)
[14] = molecular target: Phosphatidylinositol 4,5-bisphosphate 3-kinase catalytic subunit gamma isoform (Homo sapiens, UniProt P48736); assay: Inhibition of PI3Kgamma (unknown origin)
[15] = molecular target: Tyrosine-protein kinase SYK (Homo sapiens, UniProt P43405); assay: Inhibition of SYK (unknown origin)
[16] = molecular target: Proto-oncogene tyrosine-protein kinase Src (Homo sapiens, UniProt P12931); assay: Inhibition of SRC (unknown origin)
[17] = molecular target: Vascular endothelial growth factor receptor 2 (Homo sapiens, UniProt P35968); assay: Inhibition of KDR (unknown origin)
[18] = molecular target: Phosphatidylinositol 4,5-bisphosphate 3-kinase catalytic subunit beta isoform (Homo sapiens, UniProt P42338); assay: Inhibition of PI3Kbeta (unknown origin)
Sequence of Phosphatidylinositol 4,5-bisphosphate 3-kinase catalytic subunit beta isoform (P42338 whole entry, canonical isoform): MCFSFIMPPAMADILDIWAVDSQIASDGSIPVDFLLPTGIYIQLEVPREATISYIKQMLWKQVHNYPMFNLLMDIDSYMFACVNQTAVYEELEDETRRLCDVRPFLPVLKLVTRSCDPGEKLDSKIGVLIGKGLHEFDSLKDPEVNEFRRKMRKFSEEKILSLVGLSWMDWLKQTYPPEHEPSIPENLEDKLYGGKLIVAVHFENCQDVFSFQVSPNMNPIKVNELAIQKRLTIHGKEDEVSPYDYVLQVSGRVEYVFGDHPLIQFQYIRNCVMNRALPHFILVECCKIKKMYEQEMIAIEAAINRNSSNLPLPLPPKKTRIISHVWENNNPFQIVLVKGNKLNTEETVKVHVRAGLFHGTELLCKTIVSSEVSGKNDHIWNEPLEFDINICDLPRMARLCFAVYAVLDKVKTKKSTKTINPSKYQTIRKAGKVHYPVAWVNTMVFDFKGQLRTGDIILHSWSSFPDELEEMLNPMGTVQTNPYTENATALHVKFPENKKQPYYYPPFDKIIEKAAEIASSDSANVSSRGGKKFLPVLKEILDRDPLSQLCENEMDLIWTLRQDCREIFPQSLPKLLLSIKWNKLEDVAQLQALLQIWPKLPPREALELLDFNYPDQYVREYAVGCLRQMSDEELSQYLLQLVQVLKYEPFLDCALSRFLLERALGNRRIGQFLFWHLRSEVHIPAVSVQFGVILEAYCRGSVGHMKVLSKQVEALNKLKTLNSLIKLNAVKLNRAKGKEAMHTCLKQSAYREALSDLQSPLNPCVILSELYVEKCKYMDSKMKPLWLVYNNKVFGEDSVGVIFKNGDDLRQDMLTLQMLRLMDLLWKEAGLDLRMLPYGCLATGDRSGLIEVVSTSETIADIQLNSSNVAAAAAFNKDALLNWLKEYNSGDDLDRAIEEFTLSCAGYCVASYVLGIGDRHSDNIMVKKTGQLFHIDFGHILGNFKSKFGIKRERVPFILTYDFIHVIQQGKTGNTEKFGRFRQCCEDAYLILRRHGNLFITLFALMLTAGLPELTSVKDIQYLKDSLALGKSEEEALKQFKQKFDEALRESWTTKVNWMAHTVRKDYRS

[19] = molecular target: Hepatocyte growth factor receptor (Homo sapiens, UniProt P08581); assay: Inhibition of MET (unknown origin)
Sequence of Hepatocyte growth factor receptor (P08581 whole entry): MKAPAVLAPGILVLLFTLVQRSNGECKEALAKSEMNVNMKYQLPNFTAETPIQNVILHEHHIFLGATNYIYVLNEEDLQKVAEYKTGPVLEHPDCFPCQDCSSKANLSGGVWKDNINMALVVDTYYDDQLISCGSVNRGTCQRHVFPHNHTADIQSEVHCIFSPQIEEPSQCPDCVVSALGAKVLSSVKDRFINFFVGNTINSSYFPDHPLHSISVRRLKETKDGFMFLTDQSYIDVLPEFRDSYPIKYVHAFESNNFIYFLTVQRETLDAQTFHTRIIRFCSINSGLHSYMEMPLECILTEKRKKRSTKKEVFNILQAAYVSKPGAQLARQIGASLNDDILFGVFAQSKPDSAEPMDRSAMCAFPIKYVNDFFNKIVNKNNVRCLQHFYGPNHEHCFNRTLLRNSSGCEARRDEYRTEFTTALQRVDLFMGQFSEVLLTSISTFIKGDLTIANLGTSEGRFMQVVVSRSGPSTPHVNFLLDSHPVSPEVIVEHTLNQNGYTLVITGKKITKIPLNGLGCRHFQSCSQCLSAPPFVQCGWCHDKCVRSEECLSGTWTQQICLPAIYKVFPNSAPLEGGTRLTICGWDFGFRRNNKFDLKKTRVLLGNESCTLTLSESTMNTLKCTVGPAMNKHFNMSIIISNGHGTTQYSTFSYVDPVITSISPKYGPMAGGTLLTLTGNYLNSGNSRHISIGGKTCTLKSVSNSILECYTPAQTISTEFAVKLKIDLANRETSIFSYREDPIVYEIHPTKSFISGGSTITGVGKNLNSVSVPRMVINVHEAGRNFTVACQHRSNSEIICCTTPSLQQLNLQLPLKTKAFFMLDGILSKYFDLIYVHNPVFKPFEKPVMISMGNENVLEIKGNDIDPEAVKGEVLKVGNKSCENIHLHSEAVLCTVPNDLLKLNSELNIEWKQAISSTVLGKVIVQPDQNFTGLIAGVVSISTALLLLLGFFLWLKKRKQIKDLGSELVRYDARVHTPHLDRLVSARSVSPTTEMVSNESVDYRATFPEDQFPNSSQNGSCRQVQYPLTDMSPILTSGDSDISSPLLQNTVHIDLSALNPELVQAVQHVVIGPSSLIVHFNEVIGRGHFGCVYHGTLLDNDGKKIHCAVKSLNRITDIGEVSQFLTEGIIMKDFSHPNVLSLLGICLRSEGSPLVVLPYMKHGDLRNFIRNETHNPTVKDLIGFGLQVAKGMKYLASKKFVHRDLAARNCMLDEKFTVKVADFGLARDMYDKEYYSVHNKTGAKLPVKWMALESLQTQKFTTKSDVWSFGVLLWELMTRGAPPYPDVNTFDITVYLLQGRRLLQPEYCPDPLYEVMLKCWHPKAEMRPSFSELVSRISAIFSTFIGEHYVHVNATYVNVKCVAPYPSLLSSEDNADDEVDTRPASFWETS

| SMILES | Ki [1] [µM] | Ki [2] [µM] | Ki [3] [µM] | Ki [4] [µM] | EC50 (Influenza A virus [5]) [µM] | EC99 (Influenza A virus [5]) [µM] | Ki [6] [µM] | Ki [7] [µM] | Ki [8] [µM] | Ki [9] [µM] | Ki [10] [µM] | Ki [11] [µM] | Ki [12] [µM] | IC50 (Influenza A virus [13]) [µM] | Ki [14] [µM] | Ki [15] [µM] | Ki [16] [µM] | Ki [17] [µM] | Ki [18] [µM] | Ki [19] [µM] |
| --- | --- | --- | --- | --- | --- | --- | --- | --- | --- | --- | --- | --- | --- | --- | --- | --- | --- | --- | --- | --- |
| Oc1cc([C@H]2C3CCC(CC3)[C@@H]2Nc2nc(-c3c[nH]c4ncc(F)cc34)ncc2F)[nH]n1 (mixture of isomers) | > 4 | 1.2 | > 4 | 1.7 | 0.14 | 0.76 | > 4 | > 4 | > 4 | 4 | > 4 | > 4 | > 4 | 0.16 | > 4 | > 4 | > 4 | > 4 | > 4 | > 4 |
| Oc1cc([C@H]2C3CCC(CC3)[C@@H]2Nc2nc(-c3c[nH]c4ncc(F)cc34)ncc2F)on1 (mixture of isomers) | > 4 | 1.6 | > 4 | > 4 | 0.002 | 0.033 | > 4 | > 4 | 1.3 | > 4 | > 4 | > 4 | > 4 | 0.001 | 0.69 | > 4 | > 4 | > 4 | > 4 | > 4 |
| Fc1cnc2[nH]cc(-c3ncc(F)c(N[C@H]4C5CCC(CC5)[C@@H]4c4nnn[nH]4)n3)c2c1 (mixture of isomers) | > 4 | > 4 | > 4 | > 4 | 0.038 | 0.18 | > 4 | > 4 | 1.8 | > 4 | > 4 | > 4 | > 4 | 0.025 | 2.9 | > 4 | > 4 | > 4 | > 4 | > 4 |
| O=P(O)(O)[C@H]1C2CCC(CC2)[C@@H]1Nc1nc(-c2c[nH]c3ncc(F)cc23)ncc1F (mixture of isomers) | > 4 | > 4 | > 4 | > 4 | 0.051 | 0.29 | > 4 | > 4 | > 4 | 1.1 | > 4 | > 4 | > 4 | 0.091 | > 4 | > 4 | > 4 | > 4 | > 4 | > 4 |
| Cc1nnc([C@H]2C3CCC(CC3)[C@@H]2Nc2nc(-c3c[nH]c4ncc(F)cc34)ncc2F)o1 (mixture of isomers) | > 4 | 1.1 | > 4 | > 4 | 0.17 | 1.9 | 1.2 | > 4 | > 4 | 1.8 | > 4 | > 4 | > 4 | 0.13 | 2.8 | > 4 | > 4 | > 4 | > 4 | > 4 |
| O=P(O)(O)CC[C@H]1C2CCC(CC2)[C@@H]1Nc1nc(-c2c[nH]c3ncc(F)cc23)ncc1F (mixture of isomers) | 0.25 | 0.12 | > 4 | 0.32 | 0.33 | 2.1 | 3.1 | 0.62 | 0.85 | > 4 | > 4 | > 4 | > 4 | 0.2 | 0.4 | > 4 | > 4 | > 4 | > 4 | > 4 |
| CC(O)[C@H]1C2CCC(CC2)[C@@H]1Nc1nc(-c2c[nH]c3ncc(F)cc23)ncc1F (mixture of isomers) | 0.31 | 0.066 | 3.3 | 1 | 0.49 | > 3.1 | > 4 | 0.24 | > 4 | 0.15 | > 4 | 1.2 | > 4 | 0.31 | 0.78 | > 4 | 0.97 | 2 | > 4 | > 4 |
| Oc1cc([C@H]2C3CCC(CC3)[C@@H]2Nc2nc(-c3c[nH]c4ncc(F)cc34)ncc2F)no1 (mixture of isomers) | > 4 | 0.06 | > 4 | 1 | 0.011 | 0.062 | > 4 | 0.2 | 0.88 | 0.8 | > 4 | > 4 | 0.59 | 0.072 | 0.75 | > 4 | > 4 | > 4 | > 4 | > 4 |
